Among the test systems are SNB-19 CNS; OVCAR-5 ovarian; OVCAR-4 ovarian; ACHN renal; SF-539 CNS; HCT-15 colon; TK-10 renal; NCI-H23 lung; HL-60(TB) leukemia; MCF7 breast.
Holding throughout (test): inhibition of tumour cell growth, NCI panel, 48 h

SMILES strings stand for the structures. Values joined by “and” are separate entries in the source; they are usually repeats but may differ in a detail not shown here. Identical values can stand only once.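 Step 1: Grow cells in 96-well plates. Step 2: Expose to compound for 48 hours at 5 concentrations. Step 3: Interpolate endpoints linearly; if unreached, use highest concentration. GI50 is the concentration that inhibits growth by half. TGI: total growth inhibition.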 Some results are limits rather than exact numbers.

Consider `COc1cccc2c1C(=O)c1c(O)c3c(c(O)c1C2=O)C[C@@](O)(C(=O)CO)C[C@@H]3OC1C[C@H](N)[C@H](O)[C@H](C)O1` (some centres not stated), for which the GI50 with SNB-19 CNS was 0.0246 µM; with OVCAR-5 ovarian it was 0.214 µM; with OVCAR-4 ovarian, 0.133 µM; in the experiment with ACHN renal it was 0.0257 µM; in the experiment on SF-539 CNS, 0.0387 µM; in the experiment with HCT-15 colon it was 0.906 µM. Moreover, the GI50 was 0.177 µM in the experiment with TK-10 renal, 0.0484 µM in the experiment with NCI-H23 lung, 0.078 µM in the experiment with HL-60(TB) leukemia and 0.00926 µM in the experiment with MCF7 breast. Also, the TGI in the experiment with SNB-19 CNS is 6.33 µM; in the experiment with OVCAR-5 ovarian it was 14.5 µM; in the experiment with OVCAR-4 ovarian, 2.9 µM; in the experiment with ACHN renal it was 0.242 µM; with SF-539 CNS, 0.528 µM; in the experiment on HCT-15 colon, greater than 50 µM. The TGI came to 0.234 µM with NCI-H23 lung, 0.593 µM with HL-60(TB) leukemia and 4.15 µM in the experiment on MCF7 breast.
Consider `CCCCCCCCCCCCSC(=N)N`, for which the GI50 with SNB-19 CNS is 15.7 µM; with OVCAR-5 ovarian it was 12.4 µM; in the experiment with OVCAR-4 ovarian it was 7.93 µM; in the experiment on ACHN renal, 3.89 µM; in the experiment on SF-539 CNS it was 15.2 µM; with HCT-15 colon, 2.96 µM. Moreover, the GI50 in the experiment on TK-10 renal was 16.4 µM; in the experiment on NCI-H23 lung it was 16.3 µM; with HL-60(TB) leukemia it was 2.02 µM; in the experiment with MCF7 breast, 3.44 µM. In addition, the TGI with SNB-19 CNS came out at 45.7 µM; with OVCAR-5 ovarian, 25.3 µM; in the experiment with OVCAR-4 ovarian it was 27.9 µM; in the experiment with ACHN renal, 15.9 µM; in the experiment on SF-539 CNS it was 32 µM; in the experiment on HCT-15 colon, 11.5 µM. Further, the TGI is 32.3 µM in the experiment with TK-10 renal, 32.8 µM in the experiment on NCI-H23 lung, 4.27 µM in the experiment with HL-60(TB) leukemia and 15.5 µM with MCF7 breast.
For `O=C(N/N=C/c1ccc([N+](=O)[O-])cc1)c1ccc2nc(-c3ccc(Cl)cc3)[nH]c2c1`, the GI50 in the experiment on SNB-19 CNS is 7.48 µM; in the experiment on OVCAR-5 ovarian, 4.43 µM; with OVCAR-4 ovarian it was 2.75 µM; in the experiment with ACHN renal it was 4.36 µM; in the experiment on SF-539 CNS it was 2.73 µM; in the experiment on HCT-15 colon, 2.6 µM. The GI50 in the experiment with TK-10 renal is 8.99 µM; in the experiment with NCI-H23 lung it was 1.85 µM; with HL-60(TB) leukemia, 0.797 µM; with MCF7 breast it was 0.582 µM. Moreover, the TGI in the experiment with SNB-19 CNS was determined as 32.4 µM; in the experiment on OVCAR-5 ovarian, 37.8 µM; in the experiment on OVCAR-4 ovarian, 8.64 µM; with ACHN renal, 31.9 µM; in the experiment with SF-539 CNS, 10.1 µM; in the experiment with HCT-15 colon it was 13 µM. For the same compound, the TGI turned out to be 42.3 µM in the experiment with TK-10 renal, 11.5 µM with NCI-H23 lung, 5.73 µM in the experiment with HL-60(TB) leukemia and 2.85 µM in the experiment on MCF7 breast.
In the case of `N#CC1=C(N)NC(=O)NC12Nc1ccccc1S2` (configuration not stated), the GI50 with SNB-19 CNS was 44.5 µM; in the experiment with OVCAR-5 ovarian it was 27 µM; in the experiment with OVCAR-4 ovarian, 43.4 µM; in the experiment with ACHN renal it was 32.2 µM; with SF-539 CNS, 20.8 µM; in the experiment on HCT-15 colon, 26.7 µM. In addition, the GI50 with TK-10 renal was 26.1 µM; in the experiment with NCI-H23 lung, 19.3 µM; in the experiment with HL-60(TB) leukemia it was 34.5 µM; in the experiment with MCF7 breast, 24.6 µM. In addition, the TGI is greater than 100 µM with SNB-19 CNS; greater than 72.3 µM in the experiment on OVCAR-5 ovarian; greater than 100 µM in the experiment on OVCAR-4 ovarian; greater than 100 µM in the experiment with ACHN renal; greater than 54.9 µM with SF-539 CNS; 87 µM with HCT-15 colon. Besides, the TGI was 66 µM in the experiment on TK-10 renal, 47.7 µM in the experiment with NCI-H23 lung, greater than 100 µM with HL-60(TB) leukemia and greater than 73.5 µM in the experiment on MCF7 breast.
Regarding `COC(=O)C1(F)C(=O)NC(=O)NC1O` (configuration not stated), the TGI in the experiment with SNB-19 CNS, with OVCAR-5 ovarian, in the experiment with OVCAR-4 ovarian, in the experiment with ACHN renal, with SF-539 CNS and in the experiment with HCT-15 colon was greater than 100 µM in each case. The TGI with TK-10 renal, with NCI-H23 lung, in the experiment on HL-60(TB) leukemia and with MCF7 breast was greater than 100 µM in each case.
On to `Cc1cc(Cc2cc(C)cc(C(C)(C)C)c2O)c(O)c(C(C)(C)C)c1`, for which the GI50 with SNB-19 CNS was 13.1 µM; with OVCAR-5 ovarian, 14.4 µM; in the experiment on OVCAR-4 ovarian, 11.6 µM; with ACHN renal, 4.59 µM; in the experiment on SF-539 CNS, 13.3 µM; with HCT-15 colon it was 4.29 µM. For the same compound, the GI50 in the experiment with TK-10 renal was 8.22 µM; in the experiment with NCI-H23 lung, 4.23 µM; in the experiment on HL-60(TB) leukemia it was 10.5 µM; in the experiment with MCF7 breast it was 3.47 µM. Moreover, the TGI in the experiment with SNB-19 CNS was found to be 25.8 µM; in the experiment on OVCAR-5 ovarian it was 27.5 µM; in the experiment on OVCAR-4 ovarian, 23.9 µM; with ACHN renal, 15.4 µM; in the experiment on SF-539 CNS, 26 µM; with HCT-15 colon it was 14.5 µM. Also, the TGI was 21.3 µM with TK-10 renal, 16.3 µM with NCI-H23 lung, greater than 100 µM in the experiment on HL-60(TB) leukemia and 12.7 µM in the experiment with MCF7 breast.
Regarding `O=c1[nH]cnc2[nH]ncc12`, the GI50 with SNB-19 CNS was greater than 5000 µM; with OVCAR-5 ovarian it was 486 µM; in the experiment on OVCAR-4 ovarian it was 160 µM; with ACHN renal, 193 µM; in the experiment on SF-539 CNS, 2010 µM; with HCT-15 colon it was 143 µM. In addition, the GI50 in the experiment with TK-10 renal is > 94.6 µM and 258 µM; with NCI-H23 lung, 227 µM; in the experiment with HL-60(TB) leukemia it was > 79.9 µM and 108 µM; in the experiment on MCF7 breast, 259 µM. In addition, the TGI is greater than 5000 µM with SNB-19 CNS; greater than 1550 µM with OVCAR-5 ovarian; greater than 3050 µM in the experiment with OVCAR-4 ovarian; greater than 5000 µM in the experiment with ACHN renal; greater than 5000 µM in the experiment on SF-539 CNS; greater than 5000 µM in the experiment with HCT-15 colon. Besides, the TGI in the experiment on TK-10 renal is greater than 5000 µM; with NCI-H23 lung, greater than 1870 µM; in the experiment with HL-60(TB) leukemia it was greater than 3420 µM; in the experiment on MCF7 breast, greater than 5000 µM.
Turning to `c1cn2cc(-c3ccc4cn[nH]c4c3)nc(Nc3ccc(N4CCOCC4)cc3)c2n1`, the GI50 in the experiment with SNB-19 CNS is 11.2 µM; in the experiment with OVCAR-4 ovarian, 7.78 µM; in the experiment with ACHN renal, 11.1 µM; in the experiment on SF-539 CNS, 6.54 µM; in the experiment on HCT-15 colon it was 11.7 µM; in the experiment on TK-10 renal, 17.3 µM. In addition, the values for the GI50 in the experiment with NCI-H23 lung, in the experiment on HL-60(TB) leukemia and with MCF7 breast were 15.2 µM, greater than 100 µM and 10.6 µM, respectively. The TGI was found to be 30.8 µM with SNB-19 CNS; 36.2 µM with OVCAR-4 ovarian; 32.2 µM in the experiment with ACHN renal; 23.1 µM with SF-539 CNS; 41.1 µM in the experiment on HCT-15 colon; 37.8 µM in the experiment on TK-10 renal. In addition, the figures for the TGI with NCI-H23 lung, with HL-60(TB) leukemia and in the experiment with MCF7 breast were 55 µM, greater than 100 µM and 25.1 µM, respectively.

The record behind these values is PubChem BioAssay (NCI).
